According to patent publication US11352604B2, “Method of making cardiomyocytes from human pluripotent cells” (Wisconsin Alumni Research Foundation, priority 2016, dated 2022):

How the values were obtained:
Type in all cases: cell-based, human
[1] = test system: hPSC-CMs; experiment: Flow cytometry of differentiated cells (cTnT, MLC2v)
Method: Flow cytometry for internal antigens was done on dissociated cells using the same blocking, washing, secondary antibodies, and buffers as internal antigen immunofluorescence described above using mlc2v (proteintech, 1:100) and cardiac troponin T (Thermo Fisher Scientific, 1:200) in the 19-9-11 iPS cell line. Between washes and staining steps, dissociated cells were pelleted at 1,100 g for 5 minutes. Blocking and antibody staining steps were done in a volume of 100 μL, and washing steps in 1 mL in Eppendorf™ tubes.
(§1) Flow cytometry for live cell surface antigens was done on dissociated cells of the 19-9-11 iPS cell line with Thy1 biotin (1:200 Biolegend, with Life Technologies streptavidin direct conjugate at 1:1000) and SIRPα (1:200, Biolegend) in K20 and then analyzed at the UWCCC Flow Cytometry Laboratory using a BD LSRII Fortessa flow cytometer. For progenitor flow experiments, cells were dissociated as above for progenitor dissociation, centrifuged at 200×g, subjected to FACS to concentrate cells, and resuspended in 100 μL, of K2 media+rockI/Jag1 PE, BD Biosciences (1:20); Notch2 APC R&D Biosystems (1:10) and analyzed on either a BD FACSariaII cell sorter or BD LSRII Fortessa flow cytometer.

[2] = test system: hPSC-derived cardiac progenitors and hPSC-CMs; experiment: RT-qPCR gene expression in progenitors or cardiomyocytes
Method: Frozen cell pellets from progenitors or cardiomyocytes in the 19-9-11 iPS cell line were thawed and RNA isolated using RNeasy spin columns with on-column DNase treatment according to the manufacturer's instructions (Qiagen). 500 ng of isolated RNA was used as template for reverse transcription using Biorad iScript RT supermix according to the manufacturer's instructions. 2.5 ng of derived cDNA was then used as template in qPCR with Taqman® primers bearing FAM-MGB dyes for genes of interest in a 20 μL reaction with Taqman® universal PCR supermix and the manufacturer's recommended cycling conditions (Thermo Fisher Scientific).

[3] = test system: hPSC-CMs; experiment: Optical action potential measurement (RH237)
Method: After hPSC-CM dissociation, day 30 to 60 lactate-purified hPSC-CMs from the 19-9-11 cell line were plated as 80 μL drops on areas of cover glass previously coated in drops of Synthemax® working solution of 80 μL (Corning) in the K20/2 dissociation and replating technique described above. After at least two days in K2 medium, the fast-equilibrating voltage-sensitive dye RH237 at 1 μM was added and live cells imaged in the cover glass in a Leica confocal microscope. Video files of individual cells were taken and filtered with the 50th FIR filter at a cutoff frequency of 128 Hz. The resulting action potentials were analyzed for rise time and voltage velocity in MATLAB. Individual cells were considered as replicates for statistical purposes and came from 4 cell preparations.

[4] = test system: day 5 cardiac progenitors; experiment: Gene ontology / KEGG pathway analysis of pI:C up- and downregulated RNA-seq genes; conditions: pI:C top upregulated GO terms
Method: Day-5 cells from d3-5 untreated, TGFβ-treated, and pI:C-treated progenitors from the 19-9-11 iPS cell line were separately prepared as above for cell dissociation of progenitors from three different wells of each condition (for 9 total sequencing samples) and isolated as described above for RNA for RT-qPCR. rRNA-reduced Illumina TruSeq™ Stranded total RNA libraries were prepared and 1×100 bp single end sequencing was performed. To map and annotate RNA-seg data, STAR and HTSeq were used, respectively (Anders et al., 2015; Dobin and Gingeras, 2015). Annotated transcript counts were further processed with DeSEq2 for differential gene expression analysis (Love et al., 2014). Gene neighborhood analysis was performed with NEST (Jiang et al., 2015).

[5] = test system: Jag1; experiment: Flow cytometry of day 5 progenitors for Jag1 and Notch2
Excerpt: as §1

[6] = test system: day 5 cardiac progenitors; experiment: Methylcellulose colony-forming assay; conditions: 1% methylcellulose, four days, size >35 μm
Method: Day-5 cardiac progenitors from the 19-9-11 cell line were dissociated as above, but then passed 10 times through a syringe with 18 gauge needle and filtered twice through a 45 μm flow cytometry cell strainer. The cells were then counted and 100,000 cells were then mixed with 2 mL of K20 medium plus 10 μM Y-27632 ROCK-inhibitor (Tocris) containing 1% ES-Cult methylcellulose (Stemcell Technologies) and grown in one 6-well of a corning Ultra Low Attachment plate. ImageJ was used to measure colony diameter four days later and single cells observed the first day and after had diameters less than 35 μm.

[7] = test system: hPSC-CM sheets from replated progenitors; experiment: Video edge detection / beating analysis of cardiomyocyte sheets
Method: For quantification of spatial regularity and graphical presentation of time averaged beating in microtissue from the H9-cTnT-GFP (FIGS. 9A, C) or 19-9-11 (FIG. 9B) cell lines, .avi video files of low-powered (2.5× magnification) fields were recorded at a resolution of 1268×720 and a frame rate of 20/second. These videos were exported into a series of sequential .tiff files using Adobe Premiere, and then analyzed in MATLAB using previously described coding algorithms (Huebsch et al., 2015). Calculations of beat rate (before and after ivrabradine, […] for 2 hours, Sigma) were performed manually in the 19-9-11 cell line and multifocal patterns in untreated progenitor-derived sheets were represented as the average rate of beating for all foci present in a field.

[8] = primed vs untreated cardiac progenitors, qPCR
[9] = KEGG_PATHWAY hsa03030:DNA replication
[10] = KEGG_PATHWAY hsa03430:Mismatch repair
[11] = KEGG_PATHWAY hsa03460:Fanconi anemia pathway
[12] = KEGG_PATHWAY hsa04110:Cell cycle
[13] = KEGG_PATHWAY hsa05034:Alcoholism
[14] = KEGG_PATHWAY hsa05203:Viral carcinogenesis
[15] = KEGG_PATHWAY hsa05322:Systemic lupus erythematosus

polyinosinic-polycytidylic acid [pI:C]
purity of cardiomyocytes marked by cardiac troponin T (cTnT) expression ([1]; comparable for pI:C-treated and untreated progenitors, hES and hiPS cell lines): 80-95% | percentage of mlc2v+/cTnT+ hPSC-CMs ([1]; day 30): markedly increased | myofilament gene expression ([2]; day 9 cells, treated vs untreated progenitors): increased expression of all myofilament genes studied | expression of cardiomyocyte maturation genes such as cTnI and αMHC ([2]; day 20 pPSC-CM, pI:C vs untreated): increased the expression levels | expression of cardiac fibroblast genes (Thy1, MMP1, Collagen 1a, WT1) ([2]; pI:C treatment vs untreated): downregulated | levels of type I HDAC1-3 [2, 8]: unchanged to unregulated levels | levels of type II histone deacetylases (HDAC4-7) [2, 8]: universally lower levels | optical upstroke velocity (rise time) ([3]; day 30 hPSC-CMs from pI:C-treated vs untreated progenitors): significantly faster | APD80 ([3]; spontaneous action potentials): decrease | % (genes in term) [4, 9]: 2.3989% | Count (upregulated genes in term) [4, 9]: 18 | % (genes in term) [4, 10]: 1.0662% | Count (upregulated genes in term) [4, 10]: 8 | % (genes in term) [4, 11]: 1.3327% | Count (upregulated genes in term) [4, 11]: 10 | % (genes in term) [4, 12]: 1.9991% | Count (upregulated genes in term) [4, 12]: 15 | % (genes in term) [4, 13]: 4.6645% | Count (upregulated genes in term) [4, 13]: 35 | % (genes in term) [4, 14]: 3.1985% | Count (upregulated genes in term) [4, 14]: 24 | % (genes in term) ([4]; KEGG_PATHWAY hsa05218:Melanoma): 1.3327% | Count (upregulated genes in term) ([4]; KEGG_PATHWAY hsa05218:Melanoma): 10 | % (genes in term) [4, 15]: 4.7978% | Count (upregulated genes in term) [4, 15]: 36 | number of Jag1 positive cells and median fluorescence signal-to-noise [5]: increased | colony formation [6]: abundant multi-cellular colonies | contraction pattern of cell sheets from dissociated progenitors ([7]; primed progenitors): highly organized, propagating waves of contraction | beat angle range ([7]; sheets from primed relative to untreated progenitors): lower range
